Legend:
Test in all cases: cells
Format in all cases: cell-based
CCRF-CEM = CCRF-CEM (Leukemia), 10 μM, 48 hours
HL-60 (TB) = HL-60 (TB) (Leukemia), 10 μM, 48 hours
MOLT-4 = MOLT-4 (Leukemia), 10 μM, 48 hours
RPMI-8226 = RPMI-8226 (Leukemia), 10 μM, 48 hours
A549/ATCC = A549/ATCC (Non-Small Cell Lung Cancer), 10 μM, 48 hours
HOP-62 = HOP-62 (Non-Small Cell Lung Cancer), 10 μM, 48 hours
NCI-H23 = NCI-H23 (Non-Small Cell Lung Cancer), 10 μM, 48 hours
NCI-H522 = NCI-H522 (Non-Small Cell Lung Cancer), 10 μM, 48 hours
HCC-2998 = HCC-2998 (Colon Cancer), 10 μM, 48 hours
HCT-116 = HCT-116 (Colon Cancer), 10 μM, 48 hours
HCT-15 = HCT-15 (Colon Cancer), 10 μM, 48 hours
HT29 = HT29 (Colon Cancer), 10 μM, 48 hours
KM12 = KM12 (Colon Cancer), 10 μM, 48 hours
SF-268 = SF-268 (CNS Cancer), 10 μM, 48 hours
MDA-MB-435 = MDA-MB-435 (Melanoma), 10 μM, 48 hours
SK-MEL-28 = SK-MEL-28 (Melanoma), 10 μM, 48 hours
SK-MEL-5 = SK-MEL-5 (Melanoma), 10 μM, 48 hours
UACC-257 = UACC-257 (Melanoma), 10 μM, 48 hours
IGROV1 = IGROV1 (Ovarian Cancer), 10 μM, 48 hours
OVCAR-3 = OVCAR-3 (Ovarian Cancer), 10 μM, 48 hours
OVCAR-5 = OVCAR-5 (Ovarian Cancer), 10 μM, 48 hours
NCI/ADR-RES = NCI/ADR-RES (Ovarian Cancer), 10 μM, 48 hours
786-0 = 786-0 (Renal Cancer), 10 μM, 48 hours
CAKI-1 = CAKI-1 (Renal Cancer), 10 μM, 48 hours
RXF 393 = RXF 393 (Renal Cancer), 10 μM, 48 hours
TK-10 = TK-10 (Renal Cancer), 10 μM, 48 hours
UO-31 = UO-31 (Renal Cancer), 10 μM, 48 hours
HS 578T = HS 578T (Breast Cancer), 10 μM, 48 hours
BT-549 = BT-549 (Breast Cancer), 10 μM, 48 hours

| Structure (SMILES) | growth percentage (CCRF-CEM) [%] | growth percentage (HL-60 (TB)) [%] | growth percentage (MOLT-4) [%] | growth percentage (RPMI-8226) [%] | growth percentage (A549/ATCC) [%] | growth percentage (HOP-62) [%] | growth percentage (NCI-H23) [%] | growth percentage (NCI-H522) [%] | growth percentage (HCC-2998) [%] | growth percentage (HCT-116) [%] | growth percentage (HCT-15) [%] | growth percentage (HT29) [%] | growth percentage (KM12) [%] | growth percentage (SF-268) [%] | growth percentage (MDA-MB-435) [%] | growth percentage (SK-MEL-28) [%] | growth percentage (SK-MEL-5) [%] | growth percentage (UACC-257) [%] | growth percentage (IGROV1) [%] | growth percentage (OVCAR-3) [%] | other results |
| --- | --- | --- | --- | --- | --- | --- | --- | --- | --- | --- | --- | --- | --- | --- | --- | --- | --- | --- | --- | --- | --- |
| O=C1c2cc(Cl)ccc2-c2c(N3CCSCC3)nc3ccccc3c21 [SJ-9, 9-Chloro-6-thiomorpholino-11H-indeno[1,2-c]quinolin-11-one] | 105.04 | 94.50 | 93.29 | 95.20 | 104.35 | 78.17 | 94.33 | 92.76 | 103.16 | 89.08 | 97.88 | 95.52 | 97.97 | 96.13 | 107.70 | 110.84 | 89.52 | 107.44 | 72.45 | 96.58 | growth percentage (OVCAR-5): 94.37%; growth percentage (NCI/ADR-RES): 102.85%; growth percentage (786-0): 99.53%; growth percentage (CAKI-1): 82.68%; growth percentage (RXF 393): 106.09%; growth percentage (TK-10): 121.79%; growth percentage (UO-31): 65.33%; growth percentage (HS 578T): 87.68%; growth percentage (BT-549): 92.91% |
| COc1cccc(N2CCN(c3nc4ccccc4c4c3-c3ccc(Cl)cc3C4=O)CC2)c1 [SJ-20, 9-Chloro-6-(4-(3-methoxyphenyl)piperazin-1-yl)-11H-indeno[1,2-c]quinolin-11-one] | 93.78 | 99.09 | 95.46 | 93.63 | 101.22 | 90.22 | 87.22 | 79.75 | 105.79 | 93.02 | 100.39 | 95.93 | 105.95 | 83.89 | 100.75 | 103.93 | 96.87 | 93.79 | 80.87 | 104.27 | growth percentage (OVCAR-5): 98.22%; growth percentage (NCI/ADR-RES): 92.82%; growth percentage (786-0): 81.67%; growth percentage (CAKI-1): 86.59%; growth percentage (RXF 393): 78.38%; growth percentage (TK-10): 133.34%; growth percentage (UO-31): 86.64%; growth percentage (HS 578T): 71.75%; growth percentage (BT-549): 101.57% |
| O=C1c2cc(Cl)ccc2-c2c(N3CCN(C(=O)N4CCCCC4)CC3)nc3ccccc3c21 [SJ-23] | 109.87 | 109.78 | 104.77 | 104.31 | 99.12 | 96.39 | 95.41 | 99.28 | 106.23 | 101.67 | 99.35 | 108.65 | 101.58 | 107.51 | 102.57 | 107.03 | 92.50 | 104.23 | 81.63 | 103.33 | growth percentage (OVCAR-5): 102.33%; growth percentage (NCI/ADR-RES): 107.13%; growth percentage (786-0): 105.05%; growth percentage (CAKI-1): 90.50%; growth percentage (RXF 393): 107.22%; growth percentage (TK-10): 131.97%; growth percentage (UO-31): 82.74%; growth percentage (HS 578T): 102.06%; growth percentage (BT-549): 105.34% |
